According to patent publication US10131652B2, “Pyrimidinyloxy benzene derivatives as herbicides” (E. I. DU PONT DE NEMOURS AND COMPANY, priority 2014, dated 2018):
Where two headings read alike, the source gives them in different places.

Assays:
Test in all cases: Test F pre-/postemergence plant response
Type in all cases: in vivo
[1] = system: field bindweed (Convolvulus arvensis); conditions: Convolvulus arvensis, scale 0 to 100, read-out: Plant response rating, Field Bindweed
In short: (§1)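 Visual control ratings were scored 0 (no effect) to 100 (complete control) versus untreated plants after 14–21 greenhouse days. Compounds, formulated in a surfactant-containing non-phytotoxic solvent, were applied both to silt loam at planting (preemergence) and to 1- to 4-leaf plants 2–18 cm tall (postemergence).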

[2] = system: surinam grass (Brachiaria decumbens); conditions: Urochloa decumbens, pre-emergence, scale 0 to 100, read-out: Plant response rating, Surinam Grass
In short: as §1

[3] = system: giant foxtail (Setaria faberii); conditions: Setaria faberi, pre-emergence, scale 0 to 100, read-out: Plant response rating, Foxtail, Giant
In short: as §1

[4] = system: yellow nutsedge (Cyperus esculentus); conditions: Cyperus, pre-emergence, scale 0 to 100, read-out: Plant response rating, Nutsedge, Yellow
In short: as §1

[5] = system: barnyardgrass (Echinochloa crus-galli); conditions: Echinochloa crus-galli, scale 0 to 100, read-out: Plant response rating, Barnyardgrass
In short: as §1

[6] = system: wild poinsettia (Euphorbia heterophylla); conditions: Euphorbia heterophylla, scale 0 to 100, read-out: Plant response rating, Poinsettia, Wild
In short: as §1

[7] = system: velvetleaf (Abutilon theophrasti); conditions: Abutilon theophrasti, pre-emergence, scale 0 to 100, read-out: Plant response rating, Velvetleaf
In short: as §1

[8] = system: johnsongrass (Sorghum halepense); conditions: Sorghum halepense, pre-emergence, scale 0 to 100, read-out: Plant response rating, Johnsongrass
In short: as §1

[9] = system: arrowleaf sida (Sida rhombifolia); conditions: Sida rhombifolia, scale 0 to 100, read-out: Plant response rating, Arrowleaf Sida
In short: as §1

[10] = system: sandbur (southern sandbur, Cenchrus echinatus); conditions: Cenchrus echinatus, scale 0 to 100, read-out: Plant response rating, Sandbur
In short: as §1

[11] = system: dayflower (Virginia (VA) dayflower, Commelina virginica); conditions: Commelina virginica, scale 0 to 100, read-out: Plant response rating, Dayflower, VA
In short: as §1

[12] = system: goosegrass (Eleusine indica); conditions: Eleusine indica, pre-emergence, scale 0 to 100, read-out: Plant response rating, Goosegrass
In short: as §1

[13] = system: hairy beggarticks (Bidens pilosa); conditions: Bidens pilosa, scale 0 to 100, read-out: Plant response rating, Beggarticks
In short: as §1

soybean (Glycine max) = conditions: Glycine max, scale 0 to 100, read-out: Plant response rating, Soybean
In short: as §1

[14] = system: large (Lg) crabgrass (Digitaria sanguinalis); conditions: Digitaria sanguinalis, pre-emergence, scale 0 to 100, read-out: Plant response rating, Crabgrass, Large
In short: as §1

[15] = system: waterhemp (common waterhemp, Amaranthus rudis); conditions: Amaranthus tuberculatus, scale 0 to 100, read-out: Plant response rating, Waterhemp
In short: as §1

[16] = post-emergence, 31 g ai/ha Postemergence
[17] = post-emergence, 62 g ai/ha Postemergence
[18] = pre-emergence, 31 g ai/ha Preemergence
[19] = pre-emergence, 62 g ai/ha Preemergence

Fc1cccc(Oc2ncc(Cl)cn2)c1-c1cc(C(F)F)on1 [Compound 55, 5-chloro-2-[2-[5-(difluoromethyl)-3-isoxazolyl]-3-fluorophenoxy]pyrimidine]
pest or weed control at 31 g/ha [1, 16]: 25%
pest or weed control at 62 g/ha [1, 17]: 70%
pest or weed control at 31 g/ha [1, 18]: 0%
pest or weed control at 62 g/ha [1, 19]: 10%
pest or weed control at 31 g/ha ([2]; 31 g ai/ha Preemergence): 0%
pest or weed control at 62 g/ha ([2]; Preemergence): 10%
pest or weed control at 31 g/ha ([3]; 31 g ai/ha Preemergence): 90%
pest or weed control at 62 g/ha ([3]; 62 g ai/ha Preemergence): 98%
pest or weed control at 31 g/ha ([4]; 31 g ai/ha Preemergence): 0%
pest or weed control at 62 g/ha ([4]; Preemergence): 0%
pest or weed control at 31 g/ha [5, 16]: 50%
pest or weed control at 62 g/ha [5, 17]: 35%
pest or weed control at 31 g/ha [5, 18]: 10%
pest or weed control at 62 g/ha [5, 19]: 85%
pest or weed control at 31 g/ha [6, 16]: 35%
pest or weed control at 62 g/ha [6, 17]: 45%
pest or weed control at 31 g/ha [6, 18]: 0%
pest or weed control at 62 g/ha ([6]; pre-emergence, Preemergence): 30%
pest or weed control at 31 g/ha ([7]; 31 g ai/ha Preemergence): 100%
pest or weed control at 62 g/ha ([7]; Preemergence): 100%
pest or weed control at 31 g/ha ([8]; 31 g ai/ha Preemergence): 20%
pest or weed control at 62 g/ha ([8]; Preemergence): 90%
pest or weed control at 31 g/ha [9, 16]: 95%
pest or weed control at 62 g/ha [9, 17]: 100%
pest or weed control at 31 g/ha [9, 18]: 98%
pest or weed control at 62 g/ha [9, 19]: 100%
pest or weed control at 31 g/ha [10, 16]: 25%
pest or weed control at 62 g/ha [10, 17]: 15%
pest or weed control at 31 g/ha [10, 18]: 0%
pest or weed control at 62 g/ha ([10]; pre-emergence, Preemergence): 0%
pest or weed control at 31 g/ha [11, 16]: 70%
pest or weed control at 31 g/ha [11, 18]: 60%
pest or weed control at 62 g/ha [11, 19]: 40%
pest or weed control at 31 g/ha ([12]; 31 g ai/ha Preemergence): 5%
pest or weed control at 62 g/ha ([12]; Preemergence): 50%
pest or weed control at 31 g/ha [13, 16]: 55%
pest or weed control at 62 g/ha [13, 17]: 70%
pest or weed control at 31 g/ha [13, 18]: 0%
pest or weed control at 62 g/ha [13, 19]: 0%
plant injury at 31 g/ha (soybean (Glycine max); [16]): 70%
plant injury at 62 g/ha (soybean (Glycine max); [17]): 95%
plant injury at 31 g/ha (soybean (Glycine max); [18]): 40%
plant injury at 62 g/ha (soybean (Glycine max); pre-emergence, Preemergence): 50%
pest or weed control at 31 g/ha ([14]; 31 g ai/ha Preemergence): 98%
pest or weed control at 62 g/ha ([14]; 62 g ai/ha Preemergence): 100%
pest or weed control at 31 g/ha [15, 16]: 90%
pest or weed control at 62 g/ha [15, 17]: 100%
pest or weed control at 31 g/ha [15, 18]: 100%
pest or weed control at 62 g/ha ([15]; pre-emergence, Preemergence): 100%
